Source: PubChem BioAssay AID330 (DTP/NCI, 2004)
Values joined by “and” are separate entries in the source; they are usually repeats but may differ in a detail not shown here. Equal entries are not always repeated. Toxic doses and inconclusive results are not listed. The calls were made as follows: active = survival T/C of 150% or more; inactive = T/C below 125% in these data.

Tested on: P388 leukemia ip, CD2F1 mice, survival T/C
Experiment: NCI In Vivo Anticancer Drug Screen. Data for tumor model P388 Leukemia (intraperitoneal) in CD2F1 (CDF1) mice
Settings: endpoint: median survival time, higher = longer survival
Outline: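 Mice carrying the transplanted tumor received test compound or vehicle. Survival was recorded in each group, and the value is the treated-group measurement divided by that of the vehicle-treated control group.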

[1] = dose: 60.0 mg/kg/injection, schedule: Q01DX005 (ip), vehicle: saline with Tween-80
[2] = dose: 120.0 mg/kg/injection, schedule: Q01DX005 (ip), vehicle: saline with Tween-80
[3] = dose: 240.0 mg/kg/injection, schedule: Q01DX005 (ip), vehicle: saline with Tween-80
[4] = dose: 50.0 mg/kg/injection, schedule: Q01DX005 (ip), vehicle: Klucel (hydroxypropylcellulose) (HPC)
[5] = dose: 100.0 mg/kg/injection, schedule: Q01DX005 (ip), vehicle: Klucel (hydroxypropylcellulose) (HPC)

Measured: T/C

C=Cc1cc[n+](CC(=O)c2ccc(-c3ccccc3)cc2)cc1
inactive: dose: 12.5 mg/kg/injection, schedule: Q01DX009 (ip), vehicle: Klucel (hydroxypropylcellulose) (HPC) 103 % of control | dose: 25.0 mg/kg/injection, schedule: Q01DX009 (ip), vehicle: Klucel (hydroxypropylcellulose) (HPC) 90 % of control | dose: 50.0 mg/kg/injection, schedule: Q01DX009 (ip), vehicle: Klucel (hydroxypropylcellulose) (HPC) 92 % of control

Cc1ccccc1N=C1SCC(=O)N1c1ccccc1C
inactive: dose: 50.0 mg/kg/injection, schedule: Q01DX005 (ip), vehicle: saline with Tween-80 96 % of control | dose: 100.0 mg/kg/injection, schedule: Q01DX005 (ip), vehicle: saline with Tween-80 99 % of control | dose: 200.0 mg/kg/injection, schedule: Q01DX005 (ip), vehicle: saline with Tween-80 91 % of control

O=C1C=CCCCC1(c1ccccc1)c1ccccc1
inactive: dose: 100.0 mg/kg/injection, schedule: Q04DX002 (ip), vehicle: saline with Tween-80 96 % of control | dose: 200.0 mg/kg/injection, schedule: Q04DX002 (ip), vehicle: saline with Tween-80 96 % of control | dose: 400.0 mg/kg/injection, schedule: Q04DX002 (ip), vehicle: saline with Tween-80 96 % of control

O=C(NC(=O)C1CCC(=O)N1Cc1ccccc1)NC1CCC(=O)N1Cc1ccccc1 (centres undefined)
inactive: [1] 96 % of control | [2] 94 % of control

[O-]c1nn(C2OC(CO)C(O)C2O)c2cccc[n+]12 (centres undefined)
inactive: dose: 100.0 mg/kg/injection, schedule: Q01DX001 (ip), vehicle: saline 110 % of control | dose: 200.0 mg/kg/injection, schedule: Q01DX001 (ip), vehicle: saline 108 % of control | dose: 400.0 mg/kg/injection, schedule: Q01DX001 (ip), vehicle: saline 95 % of control

Cc1cc[n+](C)c2ccccc12
inactive: dose: 9.37 mg/kg/injection, schedule: Q01DX009 (ip), vehicle: saline with Tween-80 109 % of control | dose: 18.75 mg/kg/injection, schedule: Q01DX009 (ip), vehicle: saline with Tween-80 100 % of control | dose: 37.5 mg/kg/injection, schedule: Q01DX009 (ip), vehicle: saline with Tween-80 104 % of control

CC1(C)C(C)(C)C1(Br)Br
inactive: dose: 12.5 mg/kg/injection, schedule: Q01DX009 (ip), vehicle: saline + alcohol 102 % of control | dose: 25.0 mg/kg/injection, schedule: Q01DX009 (ip), vehicle: saline + alcohol 111 % of control | dose: 50.0 mg/kg/injection, schedule: Q01DX009 (ip), vehicle: saline + alcohol 103 % of control | dose: 100.0 mg/kg/injection, schedule: Q01DX009 (ip), vehicle: saline + alcohol 100 % of control and 95 % of control | dose: 200.0 mg/kg/injection, schedule: Q01DX009 (ip), vehicle: saline + alcohol 89 % of control

CCN(CC)CCOc1ccc(C2=C(c3ccccc3)CCc3cc(OC)ccc32)cc1
inactive: dose: 100.0 mg/kg/injection, schedule: Q04DX003 (ip), vehicle: saline with Tween-80 100 % of control | dose: 200.0 mg/kg/injection, schedule: Q04DX003 (ip), vehicle: saline with Tween-80 104 % of control

Cc1nnc(NC/C=C/c2ccccc2)s1
inactive: [1] 100 % of control | [2] 96 % of control | [3] 95 % of control

C=C1ON(C)C(c2ccccc2)C1S(=O)(=O)c1ccccc1 (centres undefined)
inactive: dose: 60.0 mg/kg/injection, schedule: Q01DX005 (ip), vehicle: Klucel (hydroxypropylcellulose) (HPC) 110 % of control | dose: 120.0 mg/kg/injection, schedule: Q01DX005 (ip), vehicle: Klucel (hydroxypropylcellulose) (HPC) 105 % of control | dose: 240.0 mg/kg/injection, schedule: Q01DX005 (ip), vehicle: Klucel (hydroxypropylcellulose) (HPC) 98 % of control

Cc1ccnc(NC(=O)Nc2cc(F)ccc2F)c1
inactive: dose: 30.0 mg/kg/injection, schedule: Q01DX005 (ip), vehicle: saline with Tween-80 87 % of control | [1] 87 % of control and 89 % of control | [2] 101 % of control | [3] 87 % of control

O=C1c2[nH]cnc2N(Cc2ccc(Cl)cc2)C2=NCCN12
inactive: [4] 102 % of control | [5] 100 % of control

c1ccc(-c2c[s+]cs2)cc1
inactive: dose: 6.25 mg/kg/injection, schedule: Q01DX009 (ip), vehicle: distilled water + Tween-80 111 % of control | dose: 12.5 mg/kg/injection, schedule: Q01DX009 (ip), vehicle: distilled water + Tween-80 107 % of control and 114 % of control | dose: 25.0 mg/kg/injection, schedule: Q01DX009 (ip), vehicle: distilled water + Tween-80 121 % of control and 123 % of control | dose: 50.0 mg/kg/injection, schedule: Q01DX009 (ip), vehicle: distilled water + Tween-80 104 % of control | dose: 100.0 mg/kg/injection, schedule: Q01DX009 (ip), vehicle: distilled water + Tween-80 114 % of control

Nc1ccc(O)c2c1C(=O)c1c(O)ccc(N)c1C2=O
inactive: [4] 100 % of control | [5] 105 % of control | dose: 200.0 mg/kg/injection, schedule: Q01DX005 (ip), vehicle: Klucel (hydroxypropylcellulose) (HPC) 87 % of control

Cc1ccc(S(=O)(=O)N/N=C/c2ccc(C(=O)O)cc2)cc1
inactive: dose: 12.5 mg/kg/injection, schedule: Q01DX009 (ip), vehicle: other 105 % of control | dose: 25.0 mg/kg/injection, schedule: Q01DX009 (ip), vehicle: other 111 % of control | dose: 50.0 mg/kg/injection, schedule: Q01DX009 (ip), vehicle: other 109 % of control | dose: 100.0 mg/kg/injection, schedule: Q01DX009 (ip), vehicle: other 100 % of control | dose: 200.0 mg/kg/injection, schedule: Q01DX009 (ip), vehicle: other 95 % of control | dose: 400.0 mg/kg/injection, schedule: Q01DX009 (ip), vehicle: other 105 % of control

O=C(C=C(C(F)(F)Cl)C(F)(F)Cl)c1cccs1
inactive: dose: 2.5 mg/kg/injection, schedule: Q04DX003 (ip), vehicle: saline 95 % of control | dose: 5.0 mg/kg/injection, schedule: Q04DX003 (ip), vehicle: saline 100 % of control | dose: 10.0 mg/kg/injection, schedule: Q04DX003 (ip), vehicle: saline 100 % of control

O=C(O)c1c(Cl)n(-c2ccccc2)c2c(C(=O)O)cccc12
inactive: dose: 100.0 mg/kg/injection, schedule: Q01DX001 (ip), vehicle: Klucel (hydroxypropylcellulose) (HPC) 97 % of control | dose: 200.0 mg/kg/injection, schedule: Q01DX001 (ip), vehicle: Klucel (hydroxypropylcellulose) (HPC) 97 % of control | dose: 400.0 mg/kg/injection, schedule: Q01DX001 (ip), vehicle: Klucel (hydroxypropylcellulose) (HPC) 97 % of control

C=C1C(=O)CCC1C#N (centres undefined)
inactive: dose: 50.0 mg/kg/injection, schedule: Q04DX002 (ip), vehicle: suspension in saline 100 % of control | dose: 100.0 mg/kg/injection, schedule: Q04DX002 (ip), vehicle: suspension in saline 100 % of control | dose: 200.0 mg/kg/injection, schedule: Q04DX002 (ip), vehicle: suspension in saline 93 % of control

CCC/C=C1\OC(=O)c2ccccc21
inactive: dose: 12.5 mg/kg/injection, schedule: Q01DX009 (ip), vehicle: saline with Tween-80 104 % of control | dose: 25.0 mg/kg/injection, schedule: Q01DX009 (ip), vehicle: saline with Tween-80 100 % of control | dose: 50.0 mg/kg/injection, schedule: Q01DX009 (ip), vehicle: saline with Tween-80 104 % of control | dose: 100.0 mg/kg/injection, schedule: Q01DX009 (ip), vehicle: saline with Tween-80 100 % of control | dose: 200.0 mg/kg/injection, schedule: Q01DX009 (ip), vehicle: saline with Tween-80 114 % of control

C=C1C(=O)OC2/C=C(CO)/C=C\C3OC3(C)CC(OC(=O)/C(C)=C/COC(C)=O)C12 (centres undefined)
inactive: dose: 6.25 mg/kg/injection, schedule: Q01DX005 (ip), vehicle: Klucel (hydroxypropylcellulose) (HPC) 94 % of control | dose: 12.5 mg/kg/injection, schedule: Q01DX005 (ip), vehicle: Klucel (hydroxypropylcellulose) (HPC) 103 % of control | dose: 25.0 mg/kg/injection, schedule: Q01DX005 (ip), vehicle: Klucel (hydroxypropylcellulose) (HPC) 109 % of control and 94 % of control | [4] 98 % of control

O=C(O)c1ccccc1-c1nc2ccccc2[nH]1
inactive: dose: 100.0 mg/kg/injection, schedule: Q01DX001 (ip), vehicle: saline with Tween-80 99 % of control
